Source: PMC4841942 (Cell chemical biology, 2016)
Like-named read-outs stand apart in the source and are kept apart here. One block for each molecule: values may come before it.

Experiments:
p97 WT [1] = molecular target: T1, p97 WT (Homo sapiens, UniProt P55072); experiment: ATPase activity assay, recombinant p97 WT; assay type: biochemical
p97 A530T [2] = molecular target: T2, p97 A530T (Homo sapiens, UniProt P55072, A530T); experiment: TR-FRET binding assay; settings: for increase in apparent Kd for A530T: A530T versus WT
p97 A530T [3] = molecular target: T2, p97 A530T; experiment: ATPase activity assay, recombinant p97 A530T; assay type: biochemical
p97 WT [4] = molecular target: T1, p97 WT; experiment: TR-FRET binding assay
[5] = tested on: HCT116 cells engineered with p97 A530T; experiment: Cell viability; assay type: cell-based; settings: homozygous A530T
[6] = tested on: HCT116 873-R and 873-S cells; experiment: Cell viability; assay type: cell-based
[7] = molecular target: T3, p97 complexes in HCT116 cells (Homo sapiens, UniProt P55072); experiment: Immunoblot of p97 immunoprecipitated from inhibitor-treated cells; assay type: cell-based; settings: for increase in UFD1/NPL4 binding to p97 relative to control: inhibitor concentrations causing similar CHOP and ATF4 induction
Target sequence in this assay (P55072 2-806 limits assumed, one chain of several): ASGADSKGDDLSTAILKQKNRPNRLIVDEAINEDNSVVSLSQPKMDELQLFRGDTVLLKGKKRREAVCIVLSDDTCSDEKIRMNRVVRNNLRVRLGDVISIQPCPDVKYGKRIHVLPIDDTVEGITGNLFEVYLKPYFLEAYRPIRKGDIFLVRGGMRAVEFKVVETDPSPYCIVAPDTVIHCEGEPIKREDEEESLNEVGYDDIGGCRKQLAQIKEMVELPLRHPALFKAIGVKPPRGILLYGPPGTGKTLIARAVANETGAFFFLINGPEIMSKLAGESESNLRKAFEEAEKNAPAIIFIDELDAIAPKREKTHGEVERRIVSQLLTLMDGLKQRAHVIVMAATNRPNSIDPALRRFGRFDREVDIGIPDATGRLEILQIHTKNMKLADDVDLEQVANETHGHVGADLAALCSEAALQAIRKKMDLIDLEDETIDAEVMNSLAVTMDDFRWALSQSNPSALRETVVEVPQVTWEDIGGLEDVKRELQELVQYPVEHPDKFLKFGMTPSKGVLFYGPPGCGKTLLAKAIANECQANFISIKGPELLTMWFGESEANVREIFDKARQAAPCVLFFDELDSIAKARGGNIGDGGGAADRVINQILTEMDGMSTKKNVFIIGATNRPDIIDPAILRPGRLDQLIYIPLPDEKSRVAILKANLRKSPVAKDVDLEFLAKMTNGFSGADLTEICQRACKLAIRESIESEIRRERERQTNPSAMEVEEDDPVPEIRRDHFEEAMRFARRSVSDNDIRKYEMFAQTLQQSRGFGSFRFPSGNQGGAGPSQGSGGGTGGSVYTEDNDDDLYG

[8] = tested on: CHOP, ATF4 and polyubiquitin in HCT116 cells; experiment: Immunoblot of biomarkers of p97 inhibition; assay type: cell-based; settings: 6 hours
[9] = molecular target: T3, p97 complexes in HCT116 cells; experiment: LC-MS/MS analysis of p97 complexes purified from inhibitor-treated cells; assay type: cell-based; settings: HCT116, 5 µM NMS-873, 6 hours, LC-MS/MS spectrum count
Target sequence in this assay (P55072 whole entry, one chain of several): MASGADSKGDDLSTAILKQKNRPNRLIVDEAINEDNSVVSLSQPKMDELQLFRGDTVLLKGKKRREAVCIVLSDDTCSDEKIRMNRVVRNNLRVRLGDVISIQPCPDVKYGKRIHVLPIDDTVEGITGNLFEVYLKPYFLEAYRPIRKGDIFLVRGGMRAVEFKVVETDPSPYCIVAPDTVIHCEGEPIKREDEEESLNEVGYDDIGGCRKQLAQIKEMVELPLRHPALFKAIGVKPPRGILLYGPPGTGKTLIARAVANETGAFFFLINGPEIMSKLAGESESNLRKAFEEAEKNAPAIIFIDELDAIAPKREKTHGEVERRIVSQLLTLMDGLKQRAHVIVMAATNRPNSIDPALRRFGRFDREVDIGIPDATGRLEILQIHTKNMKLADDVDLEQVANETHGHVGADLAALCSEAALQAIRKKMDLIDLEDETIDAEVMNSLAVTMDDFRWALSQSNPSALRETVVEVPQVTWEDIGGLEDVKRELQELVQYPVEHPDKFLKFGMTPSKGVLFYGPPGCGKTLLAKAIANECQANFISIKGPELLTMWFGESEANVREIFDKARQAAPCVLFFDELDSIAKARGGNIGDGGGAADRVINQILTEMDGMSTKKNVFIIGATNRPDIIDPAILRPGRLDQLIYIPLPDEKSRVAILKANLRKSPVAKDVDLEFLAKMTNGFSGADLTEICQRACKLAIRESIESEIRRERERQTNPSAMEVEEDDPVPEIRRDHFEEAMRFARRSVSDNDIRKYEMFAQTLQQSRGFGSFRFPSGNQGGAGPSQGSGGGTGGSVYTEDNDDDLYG

[10] = HCT116, 1 hour, concentration dependent, immunoblot
[11] = HCT116, after washout of 5 µM NMS-873 (120 minutes)

T1 sequence (P55072 whole entry): as the sequence (P55072 whole entry, one chain of several) above
T2 sequence (P55072 whole entry A530T): as the sequence (P55072 whole entry, one chain of several) above, with A530T counted along it

Molecule: Cc1cc2c(C(N)=O)cccc2n1-c1nc2c(c(NCc3ccccc3)n1)COCC2 [CB-5083]
sensitivity of engineered A530T cells [5]: remained sensitive
sensitivity of 873-R compared with 873-S cells [6]: similarly sensitive

Molecule: O[C@@H](CS)[C@@H](O)CS [DTT]
sensitivity of 873-R compared with 873-S cells [6]: similarly sensitive

Molecule: CC(C)C[C@H](NC(=O)[C@H](Cc1ccccc1)NC(=O)c1cnccn1)B(O)O [bortezomib]
sensitivity of 873-R compared with 873-S cells [6]: similarly sensitive

Molecule: C[C@H]1CCC/C=C/[C@@H]2C[C@H](O)C[C@H]2[C@H](O)/C=C/C(=O)O1 [brefeldin A]
sensitivity of 873-R compared with 873-S cells [6]: similarly sensitive

Molecule: CC(C)C[C@H](NC(=O)[C@H](CCc1ccccc1)NC(=O)CN1CCOCC1)C(=O)N[C@@H](Cc1ccccc1)C(=O)N[C@@H](CC(C)C)C(=O)[C@@]1(C)CO1 [carfilzomib]
sensitivity of 873-R compared with 873-S cells [6]: similarly sensitive

Molecule: tunicamycin
sensitivity of 873-R compared with 873-S cells [6]: similarly sensitive

More lines, main results first:

fold less sensitive to ADP than ATP-γ-S (p97 WT [1]; WT ATPase activity): 18 fold
IC50 (p97 WT [1]; read-out: IC50 ATPase activity, WT p97): 4500 nM
increase in apparent Kd for A530T (p97 A530T [2]): 5- to 6 fold
Kd (p97 A530T [2]; read-out: apparent Kd, A530T p97, TR-FRET): 3800 nM
fold less sensitive to ADP than ATP-γ-S (p97 A530T [3]; A530T ATPase activity): 3.7 fold
IC50 (p97 A530T [3]; read-out: IC50 ATPase activity, A530T p97): 24600 nM
Kd (p97 WT [4]; read-out: apparent Kd, WT p97, TR-FRET, non-linear regression): 600 nM
Molecule: Nc1ncnc2c1ncn2[C@@H]1O[C@H](COP(=O)(O)OP(=O)(O)O)[C@@H](O)[C@H]1O [ADP]

IC50 (p97 WT [1]): 247 nM
Kd (p97 A530T [2]): 140 nM
increase in apparent Kd for A530T (p97 A530T [2]): 5- to 6 fold
IC50 (p97 A530T [3]): 6600 nM
Kd (p97 WT [4]): 25 nM
Molecule: Nc1ncnc2c1ncn2[C@@H]1O[C@H](CO[P@](=O)(O)O[P@](=O)(O)O[P@@](=O)(O)S)[C@@H](O)[C@H]1O [ATP-γ-S]

increase in UFD1/NPL4 binding to p97 relative to control ([7]; HCT116, 1 hour): up to 2.1 fold
Molecule: c1ccc(CNc2nc(NCc3ccccc3)c3ccccc3n2)cc1 [DBeQ]
sensitivity of 873-R compared with 873-S cells [6]: similarly sensitive

increase in UFD1/NPL4 binding to p97 relative to control ([7]; HCT116, 1 hour): up to 2.1 fold
Molecule: CC1(C)C(N(O)C(=O)Nc2ccc(Cl)cc2)N(c2ccc(Cl)cc2)C(=O)N1CC(=O)N/N=C/C=C/c1ccc([N+](=O)[O-])o1 (stereo not drawn) [EerI, Eeyarestatin I]
sensitivity of 873-R compared with 873-S cells [6]: similarly sensitive

increase in UFD1 and NPL4 bound to p97 [7, 10]: 12- to 15 fold
increase in p47 bound to p97 [7, 10]: 2.5 fold
t1/2 of decrease of NPL4 binding to p97 during recovery [7, 11]: 17 min
t1/2 of decrease of UFD1 binding to p97 during recovery [7, 11]: 13 min
increase in ubiquitin bound to p97 [9]: 15 fold
Molecule: Cc1cc(OCc2nnc(SC3CCCC3)n2-c2cccnc2)ccc1-c1ccc(S(C)(=O)=O)cc1 [NMS-873]
induction of CHOP, ATF4 and polyubiquitin in 873-R compared with 873-S cells ([8]; NMS-873 2 and 5 µM, CB-5083 0.3 and 2.5 µM): diminished responses
induction of CHOP, ATF4 and polyubiquitin in engineered A530T cells ([8]; HDR cells homozygous for A530T): diminished induction

increase in UFD1/NPL4 binding to p97 relative to control ([7]; HCT116, 1 hour): up to 2.1 fold
Molecule: NMS-859
sensitivity of 873-R compared with 873-S cells [6]: similarly sensitive

cofactor concentration of maximum inhibition of ATPase activity (p97 WT [1]; WT p97, biphasic response, recovery at 200 nM): 3.1 nM
B1: p47: recombinant p97 cofactor protein with N-terminal hexahistidine tag (protein)
chain: MAAERQEALREFVAVTGAEEDRARFFLESAGWDLQIALASFYEDGGDEDIVTISQATPSSVSRGTAPSDNRVTSFRDLIHDQDEDEEEEEGQRFYAGGSERSGQQIVGPPRKKSPNELVDDLFKGAKEHGAVAVERVTKSPGETSKPRPFAGGGYRLGAAPEEESAYVAGEKRQHSSQDVHVVLKLWKSGFSLDNGELRSYQDPSNAQFLESIRRGEVPAELRRLAHGGQVNLDMEDHRDEDFVKPKGAFKAFTGEGQKLGSTAPQVLSTSSPAQQAENEAKASSSILIDESEPTTNIQIRLADGGRLVQKFNHSHRISDIRLFIVDARPAMAATSFILMTTFPNKELADESQTLKEANLLNAVIVQRLT
modifications: left off: His6, N-terminal, state not stated
